In general, EC50 refers to the concentration needed to bring the measured effect to its halfway point. As usually defined, the Kd is the concentration at which binding is half-saturated. High values mean lower affinity, low ones higher affinity.

In series [1] the test system is FTC_1_EAB (FTC_1_5'trunc19_3'trunc25), unlabelled (DNA, aptamer) CTGAGTCGTTGGCAAGGTATTGAGAGAG
The series can be described thus: ITC. The conditions noted are these: Na+ (PBS), Mg2+ 2 mM, 25 °C, 20 µM aptamer in cell; for binding: 200 µM compound in syringe.

Series [2] has as its system FTC_1_Full (DNA, aptamer) GGAGGCTCTCGGGACGACGCTGAGTCGTTGGCAAGGTATTGAGAGAGTGTCGTCCCGATGCTGCAATCGTAA
The experiment in a line: ITC. The note with it: Na+ (PBS), Mg2+ 2 mM, 25 °C, 20 µM aptamer in cell; for binding: 200 µM compound in syringe.

Series [3] relates to FTC_1_EAB, E-AB sensor (DNA, aptamer) CTGAGTCGTTGGCAAGGTATTGAGAGAG
The series can be described thus: electrochemical aptamer-based sensor (square wave voltammetry). The note with it: for binding: negligible signal 100 nM to 10 µM.

In series [4] the test system is FTC_2_Full (DNA, aptamer) GGAGGCTCTCGGGACGACCATGAGTCGTTGGTAAGGTATTAGGAAGCGGTCGTCCCGATGCTGCAATCGTAA
The series can be described thus: ITC. The note with it: Na+ (PBS), Mg2+ 2 mM, 25 °C, 20 µM aptamer in cell, 200 µM FTC in syringe.

In series [5] the test system is FTC_1_EAB_Scramble (DNA, other) GATATGGGAGAACGCATTGCGTGGTATG
The series can be described thus: not stated (ITC series, Figure S7).

Series [6] relates to FTC_5_Full (DNA, aptamer) GGAGGCTCTCGGGACGACGGCAAGTCGTTGGTAAGGTATTAATCTGGTGTCGTCCCGATGCTGCAATCGTAA
The experiment in a line: ITC. The conditions noted are these: Na+ (PBS), Mg2+ 2 mM, 25 °C, 20 µM aptamer in cell, 200 µM FTC in syringe.

The test system of series [7] is FTC_1_Fluor (FTC_1_5'trunc3_3'trunc14) (DNA, aptamer) GGCTCTCGGGACGACGCTGAGTCGTTGGCAAGGTATTGAGAGAGTGTCGTCCCGA
The experiment in a line: fluorescence, quencher strand displacement. The conditions noted are these: Na+ (PBS), Mg2+ about 1 mM; 50% human plasma; Q-Cap_1 (3'-BHQ2) displaced; 100 nM aptamer, 150 nM Q-Cap_1; apparent.

Series [8] deals with bovine serum albumin (BSA) (UniProt P02769 25-607). The experiment in a line: ITC; heat change at mole ratios <0.1; BSA as ligand; ITC: PBS + 2 mM MgCl2 (SELEX buffer pH 7.2); general ITC protocol 20 uM aptamer in cell, 200 uM target in syringe; temperature not given. The conditions noted are these: protein: commercial; stem-loop, stem S1 13 bp. A general note: Isothermal titration calorimetry measures the heat released or taken up as one component is titrated into another.
Sequence of bovine serum albumin (BSA) (P02769 25-607): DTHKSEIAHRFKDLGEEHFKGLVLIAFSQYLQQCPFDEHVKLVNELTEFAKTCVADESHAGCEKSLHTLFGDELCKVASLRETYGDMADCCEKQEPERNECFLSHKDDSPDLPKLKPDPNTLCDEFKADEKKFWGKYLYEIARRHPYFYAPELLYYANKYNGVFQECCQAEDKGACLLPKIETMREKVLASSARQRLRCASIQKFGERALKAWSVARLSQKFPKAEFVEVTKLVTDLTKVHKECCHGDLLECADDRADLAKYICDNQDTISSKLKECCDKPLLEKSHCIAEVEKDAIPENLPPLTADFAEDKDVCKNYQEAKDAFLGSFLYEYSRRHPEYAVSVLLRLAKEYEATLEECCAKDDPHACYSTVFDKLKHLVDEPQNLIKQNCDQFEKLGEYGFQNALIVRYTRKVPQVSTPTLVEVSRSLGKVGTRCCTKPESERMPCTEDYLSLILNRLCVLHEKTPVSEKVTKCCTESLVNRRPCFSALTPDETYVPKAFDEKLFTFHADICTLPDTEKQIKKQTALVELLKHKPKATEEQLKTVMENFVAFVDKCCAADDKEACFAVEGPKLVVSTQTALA

`Nc1cc[nH]c(=O)n1`: the binding entry in series [1] and in series [2] was “no” throughout.
As to `Nc1ccn([C@@H]2CS[C@H](CO)O2)c(=O)n1`, the binding entry in series [3] (binding above 10 µM, gain 50% lower than FTC) is recorded as “weak”.
Turning to `Nc1ccn([C@@H]2O[C@H](CO)[C@@H](O)[C@H]2O)c(=O)n1`, the binding entry in series [1] and in series [2] was “no” each time.
Take `Nc1nc(=O)n([C@@H]2CS[C@H](CO)O2)cc1F`: the binding entry in series [4] is listed as “yes”; in series [5], “no”; in series [6], “yes”. Further, the EC50 in series [3] (Na+ (PBS), phosphate-buffered saline, gold electrode, Hill coefficient 1, apparent) is given as 10.4 ± 0.6 µM; in series [7] it was 3.536 ± 0.069 µM. Also, in series [1] (200 µM FTC in syringe), the Kd came to 10.9 ± 0.3 µM. Further, the dissociation constant in series [2] (200 µM FTC in syringe) is on record as 150 ± 40 nM.
Regarding `Nc1nc(=O)n([C@@H]2CS[C@H](COP(=O)(O)OP(=O)(O)OP(=O)(O)O)O2)cc1F`, the binding entry in series [3] (minimal binding at saturation) is recorded as “weak”; in series [2] it was “no”.
Take `Nc1nc(=O)n([C@@H]2O[C@H](CO)[C@@H](O)[C@H]2O)cc1F`: the binding entry in series [1] and in series [2] was “no” each time.

B1: FTC_1 (taken as FTC_1_Full) (structured_DNA)
DNA: GGAGGCTCTCGGGACGACGCTGAGTCGTTGGCAAGGTATTGAGAGAGTGTCGTCCCGATGCTGCAATCGTAA
B1: in series [8], the binding result was “binds”.

For the origin of these results see PMC12478587.
